# Source: patent US20230285389A1, “USE OF CSF-1R KINASE INHIBITOR” (Shanghai Runshi Medical Technology Co., Ltd, priority 2020, published 2023)
# How the values were obtained:
# [1] = cited from earlier work
# M-NFS-60 cells = assay: Proliferation of CSF-1R highly activated mouse myeloid leukemia cell M-NFS-60 (CCK-8); assay type: cell-based; conditions: 72 h, read-out: IC50 inhibition of cell proliferation, M-NFS-60
# [2] = test system: CSF-1-induced bone marrow-derived macrophages (BMDM); assay: CSF-1-induced murine-derived macrophage (BMDM) survival (CCK-8); assay type: cell-based, BALB/c mice; conditions: Mus musculus, 168 h, murine-derived macrophages, 100 ng/mL CSF-1, 7 days, mean±SD, read-out: IC50 inhibition of cell survival, BMDM (CSF-1)
# Method: BALB/c mice (female, 6 weeks old, healthy) were sacrificed. Bone marrow cells were taken from their femurs and tibia, and seeded into a 96-well culture plate at appropriate densities (90 µL per well) after erythrobiasis treatment. 100 ng/mL of CSF-1 factor was added to each well to induce macrophages (Bone marrow-derived macrophages, BMDM), and compounds at various concentrations were added and the plate was allowed for incubation for 7 days. A solvent control group (negative control) was set. After 7 day-exposure of the cells to the compounds, 10 µL of CCK-8 reagent was added to each well. The culture plate was placed in an incubator at 37° C. for 2-4 h, and then was read with a full-wavelength microplate reader setting at the wavelength of 450 nm.
# [3] = test system: CSF-1-induced human macrophages (PBMC-derived CD14+ monocytes); assay: Survival of CSF-1-induced human macrophages from PBMC (CCK-8); assay type: cell-based; conditions: 168 h; human-derived macrophages, 100 ng/mL CSF-1, 7 days; mean±SD; read-out: IC50 inhibition of cell survival, PBMC (CSF-1)
# Method: Cryopreserved human-derived peripheral blood (peripheral blood from healthy donors) mononuclear cells (PBMCs) were taken out of liquid nitrogen for recovery. After recovery, the cells were re-suspended at 50 million/mL with the running buffer and DNAase I was added at a final concentration of 100 µg/mL and the plate was allowed for incubation for 15 min at room temperature. After centrifugation at 300 g for 5 min, the supernatant was discarded. The pellet was re-suspended at 50 million cells/mL with the running buffer, and the suspension was filtered through a 70 µM filter screen into a flow tube. The cells were sorted by using CD14+ monocyte negative selection beads sorting kit from […] company. According to the manufacture’s instructions, the specific experimental procedures were as follows.
# After cells were re-suspended at 50 million cells/mL, 50 µL of the cocktail was added to each one mL of samples. The samples were incubated at room temperature for 5 min. The magnetic beads were vortexed for 30 sec, and added to the samples. The samples were incubated for further 5 min. The sample volumes were made up to 2.5 mL. The samples were placed on a magnetic frame ([…], #18000) for 2.5 min. […] The plate was placed in an incubator at 37° C. for 2-4 h, and then was read with an adjustable wavelength microplate reader setting at a wavelength of 450 nm.
compound,measurement,setting,value
Yervoy: an anti-CTLA-4 antibody,patients experiencing immune-related adverse events,[1]; treated patients,up to 60%
same,share of immune-related adverse events that were severe (grade 3-4),[1]; treated patients,10-30%
"FC(F)(F)c1ccc(CNc2ccc(Cc3c[nH]c4ncc(Cl)cc34)cn2)cn1 [PLX3397, Pexidartinib, reference compound]",IC50,M-NFS-60 cells,62.6 ± 15.8 nM
same,IC50,[2],48.9 ± 5.9 nM
same,IC50,[3],237 ± 14.7 nM
same,black box warning on drug label,[1]; drug label,risk of severe and potentially fatal liver injury
Bavencio: anti-PD-L1 antibody,adverse response in treated patients,[1]; some of the patients,infusion-related response predominantly of grade 1-3 severity
